Assays:
pSTAT3 (pY705-STAT3) = target: T1, pSTAT3 (pY705-STAT3) (Homo sapiens, UniProt P40763); experiment: MSD-pSTAT-PBMC Assay (pSTAT3, IL-6 stimulated); assay type: cell-based; conditions: PBMC, compound 3 hrs, then 10 ng/mL IL-6 for 10 min; MSD pY705-STAT3; read-out: pSTAT3
T1 construct: host or cells: cryopreserved PBMC
How it was run: (§1)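 Human PBMCs (50,000 cells/well for STAT3, 25,000 for STAT6) treated with compound 3 h, then stimulated 10 min with 10 ng/mL IL-6 or 1 ng/mL IL-4. Lysate pSTAT3 (pY705) or pSTAT6 (pY641) measured by MSD sandwich electrochemiluminescence. Signal minus unstimulated, normalized to DMSO; IC50 by variable-slope nonlinear regression.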

pSTAT6 (pY641-STAT6) = target: T2, pSTAT6 (pY641-STAT6) (Homo sapiens, UniProt P42226); experiment: MSD-pSTAT-PBMC Assay (pSTAT6, IL-4 stimulated); assay type: cell-based; conditions: compound 3 hrs, then 1 ng/mL IL-4 for 10 min
T2 construct: host or cells: cryopreserved PBMC
T2 sequence (P42226 1-847): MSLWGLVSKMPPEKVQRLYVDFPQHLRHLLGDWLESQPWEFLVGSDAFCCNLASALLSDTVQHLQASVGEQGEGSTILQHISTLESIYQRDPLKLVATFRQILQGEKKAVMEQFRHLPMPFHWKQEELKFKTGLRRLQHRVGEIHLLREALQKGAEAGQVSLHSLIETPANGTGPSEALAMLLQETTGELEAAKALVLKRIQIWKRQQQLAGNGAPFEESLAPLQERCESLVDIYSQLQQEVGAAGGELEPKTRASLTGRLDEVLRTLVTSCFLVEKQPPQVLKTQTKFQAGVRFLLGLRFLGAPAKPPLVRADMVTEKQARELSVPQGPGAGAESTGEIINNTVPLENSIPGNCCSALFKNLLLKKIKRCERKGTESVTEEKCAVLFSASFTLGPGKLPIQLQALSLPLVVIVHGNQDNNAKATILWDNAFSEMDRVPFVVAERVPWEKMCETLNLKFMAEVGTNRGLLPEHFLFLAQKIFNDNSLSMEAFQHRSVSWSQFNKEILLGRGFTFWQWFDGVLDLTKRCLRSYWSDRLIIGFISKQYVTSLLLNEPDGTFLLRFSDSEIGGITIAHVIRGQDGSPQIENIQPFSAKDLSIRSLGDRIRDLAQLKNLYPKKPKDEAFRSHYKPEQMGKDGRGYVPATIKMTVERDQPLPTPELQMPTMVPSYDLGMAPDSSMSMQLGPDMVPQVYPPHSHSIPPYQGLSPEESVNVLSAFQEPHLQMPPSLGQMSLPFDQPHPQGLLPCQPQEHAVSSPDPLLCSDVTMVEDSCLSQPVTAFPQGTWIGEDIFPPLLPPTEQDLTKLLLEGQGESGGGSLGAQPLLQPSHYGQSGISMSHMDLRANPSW
How it was run: as §1

T1 sequence (P40763 whole entry): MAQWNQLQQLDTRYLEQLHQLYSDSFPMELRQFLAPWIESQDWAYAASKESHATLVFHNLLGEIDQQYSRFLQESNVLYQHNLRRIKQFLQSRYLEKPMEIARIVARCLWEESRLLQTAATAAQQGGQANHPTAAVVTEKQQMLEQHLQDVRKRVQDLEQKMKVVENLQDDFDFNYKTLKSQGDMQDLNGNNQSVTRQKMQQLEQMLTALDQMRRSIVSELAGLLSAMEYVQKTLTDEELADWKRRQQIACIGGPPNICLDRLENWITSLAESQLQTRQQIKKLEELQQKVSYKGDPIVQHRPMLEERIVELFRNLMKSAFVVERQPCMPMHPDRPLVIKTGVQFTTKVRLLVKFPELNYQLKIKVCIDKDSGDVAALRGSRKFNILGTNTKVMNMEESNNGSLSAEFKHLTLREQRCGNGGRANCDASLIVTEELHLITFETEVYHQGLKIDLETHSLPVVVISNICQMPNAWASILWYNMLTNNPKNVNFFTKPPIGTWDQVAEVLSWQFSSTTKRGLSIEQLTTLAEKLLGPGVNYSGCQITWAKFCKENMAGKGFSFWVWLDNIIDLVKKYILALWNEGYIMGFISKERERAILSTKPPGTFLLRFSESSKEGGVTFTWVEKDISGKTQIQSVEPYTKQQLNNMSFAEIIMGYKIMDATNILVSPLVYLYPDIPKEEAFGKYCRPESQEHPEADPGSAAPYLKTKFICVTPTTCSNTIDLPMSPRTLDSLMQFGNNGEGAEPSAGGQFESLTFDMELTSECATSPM

Row | IC50 (pSTAT3 (pY705-STAT3)) | IC50 (pSTAT6 (pY641-STAT6)) | Structure (SMILES)
1 | < 100 nM | 1 to 3 µM | CC(=O)N1C[C@@H](F)[C@@H](NC(=O)[C@@H]2CC[C@@H]3C[C@@H]4C[C@@H]4C[C@H](NC(=O)c4cc5cc(C(F)(F)P(=O)(OCCSC(=O)CC(C)C)OCCSC(=O)CC(C)C)ccc5s4)C(=O)N32)C1 [Compound 142, S,S′-(((((2-(((3S,6S,7aR, 8aS,9aR)-3-(((3S,4R)-1-acetyl-4-fluoropyrrolidin-3-yl)carbamoyl)-5-oxodecahydro-1H-cyclopropa [d]pyrrolo[1,2-a]azocin-6-yl)carbamoyl)benzo[b]thiophen-5-yl)difluoromethyl)phosphoryl)bis(oxy))bis(ethane-2,1-diyl)) bis(3-methylbutane thioate)]
2 | < 100 nM | > 3 µM | CC(C)CC(=O)SCCOP(=O)(OCCSC(=O)CC(C)C)C(F)(F)c1ccc2sc(C(=O)N[C@H]3C[C@H]4C[C@H]4C[C@H]4CC[C@@H](C(=O)N5CC(n6ccnc6)C5)N4C3=O)cc2c1 [Compound 179, S,S′-(((((2-(((3S,6S,7aR, 8aS,9aR)-3-(3-(1H-imidazol-1-yl)azetidine-1-carbonyl)-5-oxodecahydro-1H-cyclopropa[d]pyrrolo[1,2-a]azocin-6-yl)carbamoyl)benzo[b]thiophen-5-yl)difluoromethyl)phosphoryl)bis(oxy))bis(ethane-2,1-diyl)) bis(3-methylbutane thioate)]
3 | < 100 nM | > 3 µM | CC(C)(C)C(=O)SCCOP(=O)(OCCSC(=O)C(C)(C)C)C(F)(F)c1ccc2sc(C(=O)N[C@H]3C[C@@H]4C[C@@H]4C[C@H]4CC[C@@H](C(=O)N5CC(n6ccnc6)C5)N4C3=O)cc2c1 [Compound 181, S,S′-(((((2-(((3S,6S,7aS, 8aR,9aR)-3-(3-(1H-imidazol-1-yl)azetidine-1-carbonyl)-5-oxodecahydro-1H-cyclopropa[d]pyrrolo[1,2-a]azocin-6-yl)carbamoyl)benzo[b]thiophen-5-yl)difluoromethyl)phosphoryl)bis(oxy))bis(ethane-2,1-diyl)) bis(2,2-dimethyl-propanethioate)]
4 | < 100 nM | > 3 µM | CC(C)(C)C(=O)SCCOP(=O)(OCCSC(=O)C(C)(C)C)C(F)(F)c1ccc2sc(C(=O)N[C@H]3C[C@H]4C[C@H]4C[C@H]4CC[C@@H](C(=O)N5CCN(C6CCOCC6)CC5)N4C3=O)cc2c1 [Compound 220, S,S′-((((difluoro(2-(((3S,6S,7aR, 8aS,9aR)-5-oxo-3-(4-(tetrahydro-2H-pyran-4-yl)piperazine-1-carbonyl)decahydro-1H-cyclopropa[d]pyrrolo[1,2-a]azocin-6-yl)carbamoyl)benzo[b]thiophen-5-yl)methyl)phosphoryl)bis(oxy))bis(ethane-2,1-diyl)) bis(2,2-dimethyl-propanethioate)]
5 | < 100 nM | < 0.1 µM | CC(C)(C)C(=O)OCOP(=O)(OCOC(=O)C(C)(C)C)C(F)(F)c1ccc2sc(C(=O)N[C@H]3C[C@H]4C[C@H]4C[C@H]4CC[C@@H](C(=O)N5C[C@@H](C#N)[C@H](c6ccccc6)C5)N4C3=O)cc2c1 [Compound 140, ((((2-(((3S,6S,7aR, 8aS,9aR)-3-((3S,4R)-3-cyano-4-phenyl-pyrrolidine-1-carbonyl)-5-oxodecahydro-1H-cyclopropa [d]pyrrolo[1,2-a]azocin-6-yl)carbamoyl)benzo[b]thiophen-5-yl)difluoromethyl)phosphoryl)bis(oxy)) bis(methylene) bis(2,2-dimethylpro-panoate)]
6 | < 100 nM | > 3 µM | CC(C)(C)C(=O)SCCOP(=O)(OCCSC(=O)C(C)(C)C)C(F)(F)c1ccc2sc(C(=O)N[C@H]3C[C@@H]4C[C@@H]4C[C@H]4CC[C@@H](C(=O)N5CC(C(=O)N6CCOCC6)C5)N4C3=O)cc2c1 [Compound 171, S,S′-((((difluoro(2-(((3S,6S,7aS, 8aR,9aR)-3-(3-(morpholine-4-carbonyl)azetidine-1-carbonyl)-5-oxodecahydro-1H-cyclopropa[d]pyrrolo[1,2-a]azocin-6-yl)carbamoyl)benzo[b]thiophen-5-yl)methyl)phosphoryl)bis(oxy))bis(ethane-2,1-diyl)) bis(2,2-dimethyl-propanethioate)]
7 | < 100 nM | > 3 µM | CC(C)OC(=O)OCOP(=O)(Cc1ccc2sc(C(=O)N[C@H]3C[C@@H]4C[C@@H]4C[C@H]4CC[C@@H](C(=O)N5CC(n6ccnc6)C5)N4C3=O)cc2c1)OCOC(=O)OC(C)C [Compound 157, ((((2-(((3S,6S,7aS, 8aR,9aR)-3-(3-(1H-imidazol-1-yl)azetidine-1-carbonyl)-5-oxodecahydro-1H-cyclopropa[d]pyrrolo[1,2-a]azocin-6-yl)carbamoyl)benzo[b]thiophen-5-yl)methyl)phosphoryl)bis(oxy)) bis(methylene) diisopropyl bis(carbonate)]
8 | < 100 nM | > 3 µM | CC(C)(C)C(=O)SCCOP(=O)(OCCSC(=O)C(C)(C)C)C(F)(F)c1ccc2sc(C(=O)N[C@H]3C[C@H]4C[C@H]4C[C@H]4CC[C@@H](C(=O)N5CC(c6ccccn6)C5)N4C3=O)cc2c1 [Compound 218, S,S′-((((difluoro(2-(((3S,6S,7aR, 8aS,9aR)-5-oxo-3-(3-(pyridin-2-yl)azetidine-1-carbonyl)decahydro-1H-cyclopropa[d]pyrrolo[1,2-a]azocin-6-yl)carbamoyl)benzo [b]thiophen-5-yl)methyl)phosphoryl)bis(oxy))bis(ethane-2,1-diyl)) bis(2,2-dimethyl-propanethioate)]
9 | 100 to 1000 nM | > 3 µM | CC(C)(C)C(=O)OCOP(=O)(OCOC(=O)C(C)(C)C)C(F)(F)c1ccc2sc(C(=O)N[C@H]3C[C@H]4C[C@H]4C[C@H]4CC[C@@H](C(=O)N[C@@H]5CCN(c6cccnc6)C5)N4C3=O)cc2c1 [Compound 213, (((difluoro(2-(((3S,6S,7aR, 8aS,9aR)-5-oxo-3-(((R)-1-(pyridin-3-yl)pyrrolidin-3-yl)carbamoyl)decahydro-1H-cyclopropa[d]pyrrolo[1,2-a]azocin-6-yl)carbamoyl)benzo[b]thiophen-5-yl)methyl)phosphoryl)bis(oxy)) bis(methylene) bis(2,2-dimethyl-propanoate)]
10 | < 100 nM | > 3 µM | CC(C)OC(=O)OCOP(=O)(OCOC(=O)OC(C)C)C(F)(F)c1ccc2sc(C(=O)N[C@H]3C[C@@H]4C[C@@H]4C[C@H]4CC[C@@H](C(=O)N5CC(C(=O)N6CCOCC6)C5)N4C3=O)cc2c1 [Compound 176, (((difluoro(2-(((3S,6S,7aS, 8aR,9aR)-3-(3-(morpholine-4-carbonyl)azetidine-1-carbonyl)-5-oxodecahydro-1H-cyclopropa[d]pyrrolo[1,2-a]azocin-6-yl)carbamoyl)benzo[b]thiophen-5-yl)methyl)phosphoryl)bis(oxy)) bis(methylene) diisopropyl bis(carbonate)]
11 | 100 to 1000 nM | > 3 µM | CC(C)OC(=O)OCOP(=O)(Cc1ccc2sc(C(=O)N[C@H]3C[C@@H]4C[C@@H]4C[C@H]4CC[C@@H](C(=O)N5CC(C(=O)N6CCOCC6)C5)N4C3=O)cc2c1)OCOC(=O)OC(C)C [Compound 148]

Row | Structure (SMILES) | IC50 (pSTAT3 (pY705-STAT3)) | IC50 (pSTAT6 (pY641-STAT6))
12 | CC(C)OC(=O)[C@H](C)NP(=O)(Oc1ccccc1)C(F)(F)c1ccc2sc(C(=O)N[C@H]3C[C@@H]4C[C@@H]4C[C@H]4CC[C@@H](C(=O)N5CC(C(=O)N6CCOCC6)C5)N4C3=O)cc2c1 (stereo partly drawn) [Compound 186, isopropyl ((difluoro(2-(((3S,6S,7aS, 8aR,9aR)-3-(3-(morpholine-4-carbonyl)azetidine-1-carbonyl)-5-oxodecahydro-1H-cyclopropa[d]pyrrolo[1,2-a]azocin-6-yl)carbamoyl)benzo[b]thiophen-5-yl)methyl) (phenoxy)phosphoryl)-L-alaninate] | > 3000 nM | > 3 µM
13 | C[C@@H](NP(=O)(Cc1ccc2sc(C(=O)N[C@H]3C[C@@H]4C[C@@H]4C[C@H]4CC[C@@H](C(=O)N5CC(C(=O)N6CCOCC6)C5)N4C3=O)cc2c1)Oc1ccccc1)C(=O)OCc1ccccc1 (stereo partly drawn) [Compound 143, benzyl (((2-(((3S,6S,7aS, 8aR,9aR)-3-(3-(morpholine-4-carbonyl)azetidine-1-carbonyl)-5-oxodecahydro-1H-cyclopropa [d]pyrrolo[1,2-a]azocin-6-yl)carbamoyl)benzo[b]thiophen-5-yl)methyl) (phenoxy)phosphoryl)-D-alaninate] | 100 to 1000 nM | > 3 µM

Source: patent US20250215030A1, “STAT MODULATORS AND USES THEREOF” (Recludix Pharma, Inc., priority 2022, published 2025)
